From publication PMC11292626, “5-Fluoroindole Reduces the Bacterial Burden in a Murine Model of Mycobacterium tuberculosis Infection” (ACS Omega, 2024)
Values after ≈ are worked out from the molar mass of the structure shown.

Columns and labels:
Assay in all cases: microbe, parasite or virus in culture
Type in all cases: cell-based
[1] = system: M. tuberculosis PT12 strain; conditions: Mycobacterium tuberculosis, PT12STRAIN, read-out: MIC PT12
[2] = system: M. tuberculosis PT2 strain; conditions: Mycobacterium tuberculosis, PT2STRAIN, read-out: MIC PT2
[3] = system: M. tuberculosis PT20 strain; conditions: Mycobacterium tuberculosis, PT20STRAIN, read-out: MIC PT20

Compound	MIC [1] [µM]	MIC [2] [µM]	MIC [3] [µM]
Fc1ccc2[nH]ccc2c1 [Compound 1, 5-Fluoroindole]	4.7 (≈ 0.635 µg/mL)	4.7 (≈ 0.635 µg/mL)	4.7 (≈ 0.635 µg/mL)
NNC(=O)c1ccncc1 [INH, isoniazid, reference compound]	146 (≈ 20 µg/mL)		
